Experimental data published in patent US20260306633A1, “A COMBINATION THERAPY FOR CANCER TREATMENT” (Purdue Research Foundation, priority 2023, published 2026).
Values joined by “and” are separate entries in the source; they are usually repeats but may differ in a detail not shown here. Equal entries are not always repeated. “Also recorded” adds a separate entry of the source.

Experiments:
TNBC cells [1] = assay: Combination index (CI) of binary therapy, Chou-Talalay method, CompuSyn software; type: cell-based, human; settings: for combination index (CI) with cisplatin / synergism vs additive vs antagonism effect with cisplatin: PS 50 nM + cisplatin 25 μM; for combination index (CI) with doxorubicin / synergism vs additive vs antagonism effect with doxorubicin: PS 50 nM + doxorubicin 500 nM; for combination index (CI) with fluorouracil / synergism vs additive vs antagonism effect with fluorouracil: PS 50 nM + fluorouracil 25 μM; for combination index (CI) with paclitaxel / synergism vs additive vs antagonism effect with paclitaxel: PS 50 nM + paclitaxel 50 nM
Procedure: (§1) The calculated CI values are based on 50 nM concentration for the PSs, 50 nM paclitaxel, 500 nM doxorubicin, 25 μM cisplatin, 25 μM fluorouracil, and 500 nM methotrexate.
(§2) Cells were grown to confluence in a 96-well plate (9×10^3 cells/well) and co-treated for 24 hours with synthesized photosensitizers (PSs) and chemotherapeutic agents of varying concentrations ranging from 5 nM to 50 μM) in growth media from a stock solution of 10 mM in DMSO (dimethyl sulfoxide, Fisher). After 24-hour treatment, old growth media containing the PSs or compounds were aspirated out and replaced with fresh media. Plates were then positioned below a non-coherent LumaCare LC-122 650 nm light source for 1 minute at an energy fluence rate of 0.96 J/cm^2 and a power of 16 mW/cm^2 (measured using a Newport optical power meter Model 840). Unirradiated cells served as control samples. The following day, cells were washed with pre-warmed PBS, and 11MTT (3-[4,5-dimethyl-thiazol-2-yl]-2.5-diphenyltetrazolium bromide, Sigma, 0.3 mg/mL) in PBS was added to each well. Samples were allowed to incubate for additional 2 hours, after which dark blue crystals formed. DMSO was added to each well and plates were shaken at room temperature for 1 hour to dissolve the purplish-blue formazan crystals. Absorbance values at 570 nm were measured on a microplate reader (BioRad 550). Cell survival was calculated based on the absorbance of the untreated cells alone (as control) and were directly proportional to the number of viable cells in culture. Results were reported as the mean±SD of triplicate measurements.
The combination index (CI) for the binary treatment of TNBC cells with a PS and a chemotherapeutic drug was calculated based on the Chou-Talalay method using CompuSyn software. […] The unified dynamics algorithm uses a minimum of dose-data points to fit the general MAL theory.
as §1

TNBC BT-549 cells = assay: Cell survival / cell inhibition (MTT cell cytotoxicity assay) after 24 h treatment with photosensitizer and/or chemotherapeutic agent, dark or light-irradiated; type: cell-based, human; settings: for cell inhibition (%), combination with cisplatin / effect of added cisplatin compared to cisplatin-treated cell viability: PS 100 nM + cisplatin 25 μM; for cell inhibition (%), combination with cisplatin / cell inhibition (%), combination with doxorubicin / cell inhibition (%), combination with fluorouracil / cell inhibition (%), combination with methotrexate / cell inhibition (%), combination with paclitaxel: light 0.96 J cm−2; for cytotoxicity in the absence of light, PS alone: PS 500 nM
Procedure: Human mammary epithelial carcinoma cell lines purchased from the American Type Culture Collection BT-549 (ATCC HTB-122) were cultured according to ATCC protocol. BT-549 cells were grown in RPMI 1640 containing 0.023 IU/mL insulin and supplemented with 10% fetal bovine serum (FBS). Cells were grown to 80-90% confluence in 75-cm^2 culture flasks (Corning) for 4-5 days in a humidified incubator (Fisher Scientific Isotemp) with 5% CO2 at 37° C. During the incubation period, growth media was changed once with fresh pre-warmed media (pH 7.2). To harvest the cells, old growth media was aspirated out, and 3 mL 0.25% trypsin solution (Thermo Sci Hyclone) were added. The cells were incubated for 5 minutes, and the cell pellet after centrifugation was resuspended in 3 mL media, broken up gently, then 1 mL of suspended cells was transferred into a new T75 cell culture flask containing pre-warmed media (20 mL) for further culturing.
as §2
The unmetallated PS and the indium complexes were used.
Light dose corresponds to an energy fluence rate of 0.96 J/cm^2 used.
Power of 16 mW/cm^2 used.
Cell inhibition in TNBC cells is based on the cell survival (MTT) assay of the binary therapy, blending the effect of PDT and chemotherapeutic agents. […] MePheo serves as a control compound. TNBC cells were then exposed to light after binary treatment for 24 hours.

human TNBC BT-549 cells = assay: Fluorescence microscopy (Hoechst 33258) of cell morphology / cell death pathway; type: cell-based
Procedure: Grayscale images of cells stained with Hoechst 33258. Morphology of (A) untreated unirradiated cells, sham control; (B) illuminated cells; (C-E) cells treated with: PSs (InCLA, CBTN, and CPA) and paclitaxel in the dark; (F-H) PSs, followed by 1 minute light exposure; (I) paclitaxel unirradiated; (J-L) PSs and paclitaxel in the dark; (M-O) PSs co-treated with paclitaxel, then light-exposed; (P-Q) PSs co-treated with doxorubicin, then irradiated; (R) PSs and cisplatin, dark; (S-T) PSs and cisplatin, irradiated; (U) fluorouracil, dark; (V) InCLA with fluorouracil in the dark; (W) light-exposed and, (X-Y) PSs with methotrexate with light. Inserts indicate enlarged view. […] Light dose in 1 minute=0.96 J cm^−2; in 30 seconds=0.48 J cm^−2. Concentrations: PSs=50 nM; paclitaxel=50 nM; doxorubicin=500 nM; cisplatin=25 μM; fluororuracil=25 μM; and, methotrexate=500 nM.
Cells (1 mL aliquots) obtained from a diluted cell suspension were seeded into each well (1.7 cm^2, 8×10^3 cells/well) of a 4-well culture slide (BD Biosciences) and grown to confluence in 5% CO2 at 37° C. for 3-4 days for attachment to the substratum. After aspirating the old growth media, 1 mL of the photosensitizer and chemotherapeutic agents (with appropriate concentrations) in fresh pre-warmed media at 37° C. was added to each well. After compound treatment for 24 hours, cells were washed twice with 1 mL fresh growth media, and then irradiated with light using LumaCare LC-122 as described above. Cells were stained in the dark with Hoechst 33258 (Molecular Probes) in pre-warmed media for 10 minutes at 37° C., washed twice with filtered PBS, then fixed with filtered paraformaldehyde for 15 minutes in the incubator. After thorough liquid aspiration, the wells were removed and allowed to air dry in the dark for 1 hour. Slides were protected with coverslips, whose edges were sealed using clear fast-drying nail polish and allowed to dry at room temperature in the dark for 30 minutes. Images were recorded using fluorescence microscopy (DAPI for Hoechst 350-390 nm excitation and 460-490 nm emission filters) using an upright fluorescence microscope with Retiga imaging 2000R (Nikon Optiphot-2, 20× and 40×) and an image processing Nikon NIS-Elements V4.0 Qimaging software.
To determine the preferred cell death pathway for the binary chemophotodynamic therapy, tracking the hallmarks of apoptosis or necrosis was accomplished using a nuclear stain to monitor chromatin condensation and cellular contraction. TNBC cells are spindle-shaped and nearly round with intact cytoplasm, diffused chromatin, distinct cellular membrane, and large oval nuclei staining dark blue with the nuclear stain (FIG. 18A-B).

TNBC cells [2] = assay: Combination index (CI) of binary therapy, Chou-Talalay method, CompuSyn software; type: cell-based, human; settings: PS 50 nM + methotrexate 500 μM (footnote 500 nM)
[3] = PS 100 nM + doxorubicin 500 nM, 24 h
[4] = PS 100 nM + fluorouracil 25 μM, 24 h
[5] = PS 100 nM + fluorouracil 25 μM, light
[6] = PS 100 nM + methotrexate 500 nM, 24 h
[7] = PS 100 nM + paclitaxel 50 nM, 24 h
[8] = PS at lower concentration (CPA: 50 nM) + methotrexate 500 nM, light

SMILES	combination index (CI) with cisplatin (TNBC cells [1])	synergism vs additive vs antagonism effect with cisplatin (TNBC cells [1])	combination index (CI) with doxorubicin (TNBC cells [1])	synergism vs additive vs antagonism effect with doxorubicin (TNBC cells [1])	combination index (CI) with fluorouracil (TNBC cells [1])	synergism vs additive vs antagonism effect with fluorouracil (TNBC cells [1])	combination index (CI) with paclitaxel (TNBC cells [1])	synergism vs additive vs antagonism effect with paclitaxel (TNBC cells [1])	cell inhibition (%), combination with cisplatin (TNBC BT-549 cells; 24 h) [%]	effect of added cisplatin compared to cisplatin-treated cell viability (TNBC BT-549 cells; light)	cell inhibition (%), combination with doxorubicin (TNBC BT-549 cells; [3]) [%]	cell inhibition (%), combination with fluorouracil (TNBC BT-549 cells; [4]) [%]	cell inhibition (%), combination with methotrexate (TNBC BT-549 cells; [6]) [%]	cell inhibition (%), combination with paclitaxel (TNBC BT-549 cells; [7]) [%]	cytotoxicity in the absence of light, PS alone (TNBC BT-549 cells; dark)	cell viability reduction (difference) vs PS alone (TNBC BT-549 cells; [8]) [%]	combination index (CI) with methotrexate (TNBC cells [2])	synergism vs additive vs antagonism effect with methotrexate (TNBC cells [2])	further results
C=Cc1c(C)c2cc3nc(c(CC(=O)OC)c4[nH]c(cc5nc(cc1[nH]2)C(C)=C5CC)c(C)c4C(=O)NCCCCCCNC(=O)CCCCC1SCC2NC(=O)NC21)C(CCC(=O)OC)C3C (stereo not drawn) [CBTN, chlorin biotin conjugate]	0.99	(NA) (NA (0.9-1.10), nearly additive)	2.44	(A) (A (1.45-3.3), antagonism)	0.48	(S) (S (0.3-0.7), synergism)	0.74	(MS) (MS (0.7-0.85), moderate synergism)	53	reduced cell survival	64	64	42	65	No cytotoxicity	10	1.57	(A) (A (1.45-3.3), antagonism)	ranking of combination partners based on CI, decreasing order (TNBC cells [1]; PS 50 nM + drug): fluorouracil>paclitaxel>cisplatin; cell survival, co-treatment with doxorubicin in the dark (TNBC BT-549 cells; PS 100 nM + doxorubicin 500 nM, 24 h, dark): 51%; cell survival, co-treatment with doxorubicin upon light (TNBC BT-549 cells; PS 100 nM + doxorubicin 500 nM, light, 1440 min, 0.1 µM): 35% and 36%; best combination partner (TNBC BT-549 cells; PS 100 nM + drug, light): with paclitaxel followed by doxorubicin or fluorouracil; also recorded: with paclitaxel, followed by doxorubicin or fluorouracil; cell viability reduction (difference) vs PS alone (TNBC BT-549 cells; [5]): 46%; effect of added fluorouracil compared to fluorouracil-treated cell viability (TNBC BT-549 cells; [5]): reduced cell survival; cell survival, co-treatment with fluorouracil upon light (TNBC BT-549 cells; PS 100 nM + fluorouracil 25 μM, light, 1440 min): 36%; cell survival, co-treatment with methotrexate in the dark (TNBC BT-549 cells; PS 100 nM + methotrexate 500 nM, 24 h, dark): 85%; cell survival, co-treatment with paclitaxel upon light (TNBC BT-549 cells; PS 100 nM + paclitaxel 50 nM, light, 1440 min): 35%; chemophotodynamic potency against TNBC cells, summary (TNBC BT-549 cells; PS 100 nM alone or in combination, light): better activity against TNBC cells than the starting compound MePheo; cell survival, PS alone (TNBC BT-549 cells; PS 100 nM, light 0.96 J/cm^2, 1440 min, 0.1 µM): 82% and 81%; combination therapy vs monotherapy (doxorubicin) (TNBC BT-549 cells; PS + doxorubicin, light): better photodynamic effect when co-treated with doxorubicin than PS-treatment alone; combination therapy vs monotherapy (fluorouracil) (TNBC BT-549 cells; PS + fluorouracil, light): best compared to monotherapy alone and with the other PSs used; cell morphology, PS co-treated with cisplatin, light (human TNBC BT-549 cells; PS 50 nM + cisplatin 25 μM, light 0.48 J/cm^2 (FIG. 18S-T)): a significant number of shrunk cells and chromatin condensation can be seen; cell morphology, PS co-treated with doxorubicin (human TNBC BT-549 cells; PS 50 nM + doxorubicin 500 nM, irradiated): No significant difference; cell morphology, PS co-treated with methotrexate, light (human TNBC BT-549 cells; PS 50 nM + methotrexate 500 nM, light (FIG. 18X-Y)): Very few cells exhibit chromatin condensation; cell morphology, PS co-treated with paclitaxel (human TNBC BT-549 cells; PS 50 nM + paclitaxel 50 nM, light (FIG. 18M-O)): shrunk cells and chromatin fragmentation are evident; cell morphology, PS-treated then light (human TNBC BT-549 cells; PS 50 nM, 24 h, light (FIG. 18F-H)): not as obvious; preferred mode of cell death (human TNBC BT-549 cells; PS co-treated with paclitaxel or cisplatin): apoptosis
C=Cc1c(C)c2cc3nc(c4c5[nH]c(cc6nc(cc1[nH]2)C(C)=C6CC)c(C)c5C(=O)[C@@H]4C(=O)OC)[C@@H](CCC(=O)OC)[C@@H]3C [MePheo, methyl pheophorbide, reference compound]	6.10	(SA) (SA (3.3-10), strong antagonism)	6.37	(SA) (SA (3.3-10), strong antagonism)	17.96	(VSA) (VSA (>10), very strong antagonism)	13.27	(VSA) (VSA (>10), very strong antagonism)	39	reduced cell survival	36	34	40	55	No cytotoxicity	10	7.79	(SA) (SA (3.3-10), strong antagonism)	cell survival, co-treatment with fluorouracil in the dark (TNBC BT-549 cells; PS 100 nM + fluorouracil 25 μM, 24 h, dark): 61%; cell survival, co-treatment with paclitaxel in the dark (TNBC BT-549 cells; PS 100 nM + paclitaxel 50 nM, 24 h, dark): 46%
